Biological target: BthII1283 (Burkholderia thailandensis, UniProt Q2T5S0)

Cn1c(=O)[nH]c2nncnc2c1=O [1-DMT]
HPLC and HRMS of methylation product: Reumycin (1-DMT) is converted to a single product with an identical retention time
